The text below walks through data of patent US20230157975A1, “TREATMENT OF PULMONARY FIBROSIS” (REGENALL LIMITED, priority 2020, published 2023).

The structures appear in SMILES notation.

In assay [1] the test system is bleomycin-induced lung fibrosis. The settings on record: rats; by downregulating the TGF-β1/Smad3 signalling pathway; cited from earlier work.
A further assay relates to Tendon injury. Nature of the assay: Tendon injury, recovery following treatment with Vitamin A (Example 3). Format: in vivo. The settings on record: Horse subject 1 (polo pony); oral 750,000 IU twice daily, at least 4 weeks; started approximately 20 days after injury. An excerpt: [table] Treatment with Vitamin A was initiated approximately 20 days after the initial injury. Retinyl palmitate (93.8% Retinol Equivalent) Oral 750,000 IU Twice daily (1,500,000 IU per day) Continuing (at least 4 weeks)

On to `CC1=C(/C=C/C(C)=C/C=C/C(C)=C/C(=O)O)C(C)(C)CCC1` [RA], for which the “Effect on bleomycin-induced lung fibrosis” value in assay [1] is on record as “ameliorates bleomycin-induced lung fibrosis”.

As to `CCCCCCCCCCCCCCCC(=O)OC/C=C(C)/C=C/C=C(C)/C=C/C1=C(C)CCCC1(C)C` [Vitamin A, Retinyl palmitate], in the assay with Tendon injury, the Functional recovery entry is recorded as “good” and the “Size of the lesion by ultrasonography” value is reported as “good reduction in the size of the lesion”.
